Data taken from US20240182526A1, “COMPOSITIONS AND METHODS FOR MODULTING INFLAMMATORY AND DEGENERATIVE DISORDER” (University of Southern California, priority 2021, published 2024).
“Also recorded” adds a separate entry of the source.

What was measured:
[1] = 90-day pharmacokinetic study after intra-articular injection in Beagles; type: in vivo; conditions: Beagle
Method: Pharmacokinetic assessment of R805. Pharmacokinetics were conducted in a canine model for over 90 days. Purpose-bred beagles with intact stifles were injected intra-articularly with 500 μL of physiological saline containing 0.25% carboxymethyl cellulose (CMC) and either 1 μg or 100 ng of […] (n=4 each). Synovial fluid and plasma were collected at d0, d3, d7, d14, d21, d31, d60 and d90 and analyzed by LC-MS/MS. Doses of 10 μg, 1 μg and 0.1 μg of R805 were utilized for the main experiment.

[2] = test system: cleaved ACAN and COL2 neoepitopes; assay: Neoepitope assay on pig articular cartilage explants stimulated with OSM; type: cell-based; conditions: 72 hours, normalized to wet weight
Method: Neoepitope analysis. WT and F814 mouse articular cartilage explants were treated with or without OSM (10 ng/mL). Pig articular cartilage explants were stimulated with or without OSM (10 ng/mL) and treated with or without peptide QQpYF (100 μg/mL or 300 μg/mL). For R805 treatment, pig articular cartilage explants were stimulated with or without OSM (10 ng/mL) and treated with or without R805 (0.01, 0.1, 1 or 10 μM). The explants were then digested for 2 hr at 37° C. with 0.01 units chondroitinase ABC (Sigma Aldrich, St. Louis, MO). Samples were then dialyzed with ultrapure water for 24 hr at 4° C., freeze dried, dissolved in RIPA Lysis and Extraction Buffer (Pierce, IL) containing protease inhibitors (Pierce) followed by sonication. Proteins were separated and analyzed by Western blot using primary antibodies against aggrecan (cat #NB100-74350, Novus Biologicals,) and collagen II neoepitopes (cat #50-1035, Ibex). Wet weight of explants was used as loading control.

MAPK (ERK 1/2) = assay: Western blot of MAPK (pERK 1/2) in OSM-stimulated pig articular chondrocytes; type: cell-based
Method: For standard western blot, treated and non-treated cells were lysed in RIPA Lysis and Extraction Buffer (Pierce, Rockford, IL) containing protease inhibitors (Pierce) followed by sonication with a 15-second pulse at a power output of 2 using the VirSonic 100 (SP Industries Company, Warminster, PA). Protein concentrations were determined by BCA protein assay (Pierce). Proteins were resolved with SDS-PAGE utilizing 4-15% Mini-PROTEAN TGX Precast Gels and transferred to Trans-Blot Turbo Transfer Packs with a 0.2-μm pore-size nitrocellulose membrane. The SDS-PAGE running buffer, 4-15% Mini-PROTEAN TGX Precast Gels, Trans-Blot Turbo Transfer Packs with a 0.2-μm pore-size nitrocellulose membrane was purchased from Biorad (Hercules, CA). Nitrocellulose membranes were blocked in 5% nonfat milk in 0.05% (v/v) Tween 20 (PBST) (Corning, Manassas, VA). Membranes were then incubated with primary antibodies p-gp130 Y814 (Evseenko lab, AbClonal), p-AKT (cat #4060, Cell Signaling), p-ERK 1/2 (cat #9106, Cell Signaling), p-Y416-SRC (cat #1246F, Novus Biologicals), p-gp130 (cat #1453R, Bioss USA) and p-NFκBp65 (cat #8242, Cell Signaling), and/or YAP1 (cat #4912, Cell Signaling). Histone H3 (cat #9515, Cell Signaling) was used as loading control. […] Quantification of blots was performed using ImageJ 1.44 followed by Prism9 for analysis.

time that IC50 concentrations of R805 were maintained in the joint ([1]; 1 μg intra-articular injection): 3 weeks
SMILES: Cc1ccc(-c2csc(NC(=O)c3ccccn3)n2)cc1 [Peptide R805]
detection in systemic circulation ([1]; intra-articular injection, 90-day study): never detected in systemic circulation; also recorded: not detected in systemic circulation | matrix degeneration: levels of cleaved ACAN and COL2 neoepitopes [2]: able to decrease; also recorded: protective effect on OSM-induced cartilage degeneration in vitro | MAPK (pERK 1/2) activation induced by OSM (MAPK (ERK 1/2)): markedly suppressed
